In patent US20240336642A1 (The General Hospital Corporation, priority 2021, published 2024):
Where a name gives a salt, the structure may show the parent alone.

Experiments:
[1] = In vivo conversion of prodrug to parent compound
Protocol: FIG. 1 contains chemical schemes showing in vivo conversion of prodrug compounds 51, 52, 53 to their parent compounds 22, 1, and 1, respectively.
(§1) 20 mg/ml were obtained in 20% Captisol, allowing for intravenous delivery in the mouse stroke model.

[2] = test system: experimental stroke model in mice (MCAO); assay: Mouse stroke model, filament middle cerebral artery occlusion (MCAO), infarct size; format: in vivo
Protocol: Studies were carried out in experimental stroke model in mice, using the filament model of middle cerebral artery occlusion (MCAO). For intraperitoneal delivery, compounds were dissolved in DMSO. A number of exemplified compounds were able to reduce infarct size when given at a dosage of 40 mg/kg.
40 mg/kg cmpd. 1 were given i.p. at time of reperfusion. Infarct size was measured at 24 hours after 60 minutes MCAO.
MCAO (Experimental Middle Cerebral Artery Ischemia and Functional Recovery) experiment: 40 mg/kg of compound delivered intraperitoneally 2 h post reperfusion, 60 minutes MCAO, sacrifice at 24 h, infarct size determined by TTC staining.

h12/15-LOX = h12/15-LOX (Homo sapiens (Human), UniProt P16050); assay: 12/15-LOX enzyme inhibition IC50 assay (Examples 1 and 2); format: biochemical; conditions: for Emax: h12/15-LOX, read-out: Max % inhibition
Chain of h12/15-LOX (P16050 whole entry): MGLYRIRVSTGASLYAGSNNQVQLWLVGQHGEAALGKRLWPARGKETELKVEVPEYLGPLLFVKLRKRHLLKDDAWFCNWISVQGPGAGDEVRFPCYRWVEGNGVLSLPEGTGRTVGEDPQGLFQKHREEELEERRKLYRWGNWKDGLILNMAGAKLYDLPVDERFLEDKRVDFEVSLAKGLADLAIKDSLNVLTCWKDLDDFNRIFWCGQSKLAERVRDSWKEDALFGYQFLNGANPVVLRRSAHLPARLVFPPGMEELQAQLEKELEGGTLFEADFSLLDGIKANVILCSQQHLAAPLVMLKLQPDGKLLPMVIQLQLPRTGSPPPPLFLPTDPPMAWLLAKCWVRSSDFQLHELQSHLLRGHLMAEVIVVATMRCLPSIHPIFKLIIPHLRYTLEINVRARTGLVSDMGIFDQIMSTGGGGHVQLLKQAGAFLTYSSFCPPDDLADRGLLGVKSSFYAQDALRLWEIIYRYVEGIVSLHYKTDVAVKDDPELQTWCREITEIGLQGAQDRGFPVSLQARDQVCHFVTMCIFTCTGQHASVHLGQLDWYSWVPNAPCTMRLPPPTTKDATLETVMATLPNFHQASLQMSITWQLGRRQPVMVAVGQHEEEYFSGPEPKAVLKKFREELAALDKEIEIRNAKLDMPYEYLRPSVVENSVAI
Protocol: Enzyme was then added to the cuvettes. […] The % inhibition for each test compound concentration were calculated as follows: […]

[3] = Solubility in formulation vehicles (Solutol HS-15/PEG400, Captisol); format: physicochemical; conditions: for solubility: aqueous with cosolvent or surfactant or cyclodextrin; for solution concentration achieved: 10% Solutol/90% PEG400
Protocol: Combinations of Solutol HS-15 (also known as Kolliphor HS-15) with PEG400 provided a good vehicle to solubilize the tested compounds. Specifically, 10% Solutol/90% PEG400 was used to prepare 20 mg/ml solutions of compound 1, compound 44, and compound 32. 10% Solutol/15% H2O/[…] led to 10 mg/ml solutions of the tested compounds.
as §1

[4] = Aqueous solubility of exemplified compounds (Example 3); format: physicochemical; conditions: for Sol: aqueous solubility
[5] = Metabolic stability of exemplified compounds (Example 4); format: in vitro ADME
[6] = Hydrolysis of prodrug in plasma; format: in vitro ADME
Protocol: as §1

With CN(C)CCCOC(=O)N(C)c1oc(-c2cc(Cl)cc(Cl)c2Cl)nc1C#N [Compound 52, 3-(dimethylamino) propyl (4-cyano-2-(2,3,5-trichlorophenyl)oxazol-5-yl)(methyl) carbamate hydrochloride] the “in vivo processing of prodrug” value [1] was “processed to the parent molecule, compound 1”, the infarct size reduction ([2]; 40 mg/kg i.v. in 50% Captisol, immediately after reperfusion, 24 h, hydrochloride) was 31.7% and the infarct size reduction ([2]; 40 mg/kg i.v. in 50% Captisol, immediately after reperfusion, 24 h, listed as Cmpd. 52, hydrochloride) was 31.7%. For the same compound, the IC50 (h12/15-LOX) was 1400 nM, the solubility ([3]; 20% Captisol) was 20 mg/mL and the solubility ([3]; 50% Captisol solution) was 27 mg/mL.
In the case of [2H]C([2H])([2H])Nc1oc(-c2cc(Cl)cc(Cl)c2Cl)nc1C#N [Compound 44, 5-((methyl-d3)amino)-2-(2,3,5-trichlorophenyl) oxazole-4-carbonitrile], the infarct size reduction ([2]; 40 mg/kg intraperitoneally 2 h post reperfusion, 60 minutes MCAO, sacrifice at 24 h, TTC staining) is reported as 29.6%, the IC50 (h12/15-LOX) is reported as 90 nM and the Emax (h12/15-LOX) is reported as 91%. The solution concentration achieved [3] was 20 mg/mL.
For COCCOCCNc1oc(-c2cc(Cl)cc(Cl)c2Cl)nc1C#N [Compound 32, 5-((2-(2-Methoxyethoxy)ethyl)amino)-2-(2,3,5-trichlorophenyl) oxazole-4-carbonitrile], the Sol [4] was “++ (“++” 10-20 μM)”, the infarct size reduction ([2]; 40 mg/kg intraperitoneally 2 h post reperfusion, 60 minutes MCAO, sacrifice at 24 h, TTC staining, listed as Cmpd. 32) was 31.8% and the infarct size reduction ([2]; 40 mg/kg intraperitoneally 2 h post reperfusion, 60 minutes MCAO, sacrifice at 24 h, TTC staining, listed as compound 32) was 31.8%. For the same compound, the IC50 (h12/15-LOX) was 610 nM, the Emax (h12/15-LOX) was 96% and the “Extr (EH)” value ([5]; Human liver microsomes) was “* (“*” <50%)”. For the same compound, the microsomal CLint ([5]; Human liver microsomes) was under 20 µL/min/mg, the “Extr (EH)” value ([5]; Mouse liver microsomes) was “* (“*” <50%)” and the microsomal CLint ([5]; Mouse liver microsomes) was under 20 µL/min/mg. For the same compound, the “Extr (EH)” value ([5]; Rat liver microsomes) was “* (“*” <50%)”, the microsomal CLint ([5]; Rat liver microsomes) was under 20 µL/min/mg and the solution concentration achieved [3] was 20 mg/mL.
For N#Cc1nc(-c2cc(Cl)cc(Cl)c2Cl)oc1NCCCO [Compound 16, 5-((3-Hydroxypropyl)amino)-2-(2,3,5-trichlorophenyl)oxazole-4-carbonitrile], the Sol [4] was “+++ (“+++” 20-50 μM)”, the IC50 (h12/15-LOX) was 4300 nM and the Emax (h12/15-LOX) was 100%. For the same compound, the “Extr (EH)” value ([5]; Human liver microsomes) was “* (“*” <50%)”, the microsomal CLint ([5]; Human liver microsomes) was under 20 µL/min/mg and the “Extr (EH)” value ([5]; Mouse liver microsomes) was “** (“**” 50-100%)”. For the same compound, the microsomal CLint ([5]; Mouse liver microsomes) was 100 to 200 µL/min/mg, the “Extr (EH)” value ([5]; Rat liver microsomes) was “* (“*” <50%)” and the microsomal CLint ([5]; Rat liver microsomes) was 20 to 100 µL/min/mg.
For N#Cc1nc(-c2cc(Cl)cc(Cl)c2Cl)oc1NCCCCCOP(=O)(O)O [Compound 51, 5-((4-cyano-2-(2,3,5-trichlorophenyl)oxazol-5-yl)amino) pentyl dihydrogen phosphate], the “aqueous solubility versus parent compound” value [4] was “high aqueous solubility versus parent compound 22”, the hydrolysis in plasma [6] was “susceptible to hydrolysis in plasma” and the IC50 (h12/15-LOX) was over 20000 nM.
